# Structures can show the parent of a compound that is named as a salt.
# Biological target: T1, 5-HT4 receptor (Cavia porcellus, UniProt O70528)
# T1 construct: striatum was isolated which was cryopreserved at −80° C. until use; from tissue; host or cells: guinea pig (Slc-Hartley) striatum membranes
# Experiment: Test Example 3: Guinea pig 5-HT4 receptor binding assay, [3H]-GR113808, striatum membranes (Table 98)
# Details: Guinea pig 5-HT4 receptor binding assay, [3H]-GR113808, striatum membranes; mean value of each group; read-out: IC50
# Protocol: The guinea pig 5-HT4 receptor binding assay and preparations of receptor membrane preparations herein were carried out according to a method of Grossman et al. [see, British J. Pharmacol., (1993) 109, 618].
# Slc-Hartley guinea pigs (body weight 300 g to 400 g) were decapitated to remove brain rapidly, and striatum was isolated which was cryopreserved at −80° C. until use. To the obtained tissues were added fifteen fold of Hepes buffer (50 mM, pH 7.4, 4° C.), and the mixture was homogenized by Teflon (trademark) homogenizer and centrifuged at 48,000×g (4° C.) for 15 minutes. To the resulting precipitate was added Hepes buffer (1 ml) to 30 mg by wet weight of tissues, and the mixture was suspended to give receptor membrane preparations.
# To an assay tube were added 0.1 nM [^3H]-GR113808 {chemical name: [1-[2-(methylsulfonylamino) ethyl]-4-piperidinyl]methyl 1-methylindole-3-carboxylate}, receptor membrane preparations, and Hepes buffer (50 mM, pH 7.4, 4° C., 1 ml) containing test compounds or 30 μM serotonin; and the mixture was incubated at 37° C. for 30 minutes. On quenching the reaction, the mixture was rapidly filtered on whatman GF/B filter, which was presoaked in 0.1% polyethyleneimine for 1 hour, by using Brandel cell Harvester, and washed with ice-cooled 50 mM Tris-HCl (pH 7.7, 4 ml) three times. To the filter after filtration was added a liquid scintillator (Ecoscint), and then a radioactivity was determined by a liquid scintillation counter.
# 50% Inhibition concentrations (IC50) were determined from inhibition rates of test compounds to specific bindings which were obtained by subtracting nonspecific bindings from total binding amounts of [^3H]-GR113808. […]
# T1 sequence (O70528 whole entry): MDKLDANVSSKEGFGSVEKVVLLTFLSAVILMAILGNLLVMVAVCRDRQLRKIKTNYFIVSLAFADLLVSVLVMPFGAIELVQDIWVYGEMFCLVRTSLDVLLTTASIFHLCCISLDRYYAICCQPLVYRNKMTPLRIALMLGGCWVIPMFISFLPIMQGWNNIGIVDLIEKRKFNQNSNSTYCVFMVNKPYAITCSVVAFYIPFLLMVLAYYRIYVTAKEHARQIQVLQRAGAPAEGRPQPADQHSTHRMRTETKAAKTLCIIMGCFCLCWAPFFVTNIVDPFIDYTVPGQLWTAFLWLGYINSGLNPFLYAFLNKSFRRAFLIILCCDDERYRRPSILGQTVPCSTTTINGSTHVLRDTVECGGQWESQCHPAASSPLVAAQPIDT
row,Structure (SMILES),IC50 [nM]
1,"COc1cccc2c(C(C)C)nn(-c3noc(C4CCN(C5CCC5)CC4)n3)c12 [Example 440, 1-[5-(1-cyclobutylpiperidin-4-yl)-1,2,4-oxadiazol-3-yl]-7-methoxy-3-(propan-2-yl)-1H-indazole]",104
2,"COc1cccc2c(C(C)C)nn(-c3noc(C4CCN(C5CCOCC5)CC4)n3)c12 [Example 441, 7-methoxy-3-(propan-2-yl)-1-{5-[1-(tetrahydro-2H-pyran-4-yl)piperidin-4-yl]-1,2,4-oxadiazol-3-yl}-1H-indazole]",78.2
3,"CC(C)c1nn(-c2noc(C3CCN(C4CCC(F)(F)CC4)CC3)n2)c2c(F)cccc12 [Example 442, 1-{5-[1-(4,4-difluorocyclohexyl)piperidin-4-yl]-1,2,4-oxadiazol-3-yl}-7-fluoro-3-(propan-2-yl)-1H-indazole]",< 20
4,"CC(C)c1nn(-c2noc(C3CCN(C4CC[S+]([O-])CC4)CC3)n2)c2c(F)cccc12 (stereo not shown) [Example 443, 7-fluoro-1-{5-[1-(1-oxidotetrahydro-2H-thiopyran-4-yl)piperidin-4-yl]-1,2,4-oxadiazol-3-yl}-3-(propan-2-yl)-1H-indazole]",18.1
5,"CCc1nn(-c2noc(C3CCN(C4CCC4)CC3)n2)c2c(F)c(F)ccc12 [Example 446, 1-[5-(1-cyclobutylpiperidin-4-yl)-1,.2,4-oxadiazol-3-yl]-3-ethyl-6,7-difluoro-1H-indazole-trifluoroacetate]",< 20
6,"CC(C)c1nn(-c2noc(C3CCN(C4CCCC4)CC3)n2)c2c(F)c(F)ccc12 [Example 452, 1-[5-(1-cyclopentylpiperidin-4-yl)-1,2,4-oxadiazol-3-yl]-6,7-difluoro-3-(propan-2-yl)-1H-indazole trifluoroacetate]",< 20
7,"CC(C)c1nn(-c2noc(C3CCN(CC4CCOCC4)CC3)n2)c2c(F)c(F)ccc12 [Example 453, 6,7-difluoro-3-(propan-2-yl)-1-{5-[1-(tetrahydro-2H-pyran-4-ylmethyl)piperidin-4-yl]-1,2,4-oxadiazol-3-yl}-1H-indazole trifluoroacetate]",28.1
8,"CC(C)c1nn(-c2noc(C3CCN(C4CCOCC4)CC3)n2)c2c(F)c(F)ccc12 [Example 454, 6,7-difluoro-3-(propan-2-yl)-1-{5-[1-(tetrahydro-2H-pyran-4-yl)piperidin-4-yl]-1,2,4-oxadiazol-3-yl}-1H-indazole trifluoroacetate]",< 20
9,"CC(C)c1nn(-c2noc(C3CCN(C4CCOCC4)C3)n2)c2c(F)cccc12 (stereo not shown) [Example 456, 7-fluoro-3-(propan-2-yl)-1-{5-[1-(tetrahydro-2H-pyran-4-yl)pyrrolidin-3-yl]-1,2,4-oxadiazol-3-yl}-1H-indazole]",< 20
10,"CC(=O)N1CCC(N2CCC(c3nc(-n4nc(C(C)C)c5ccc(C)cc54)no3)CC2)CC1 [Example 462, 1-(4-{3-[6-methyl-3-(propan-2-yl)-1H-indazol-1-yl]-1,2,4-oxadiazol-5-yl}-1,4′-bipiperidin-1′-yl}ethanone trifluoroacetate]",109
11,"COCC(=O)N1CCC(N2CCC(c3nc(-n4nc(C(C)C)c5ccc(F)c(F)c54)no3)CC2)CC1 [Example 465, 1-(4-{3-[6,7-difluoro-3-(propan-2-yl)-1H-indazol-1-yl]-1,2,4-oxadiazol-5-yl}-1,4′-bipiperidin-1′-yl)-2-methoxyethanone trifluoroacetate]",< 20
12,"CC(C)c1nn(-c2noc(C3CCN(C4CCN(S(C)(=O)=O)CC4)CC3)n2)c2c(F)cccc12 [Example 466, 4-{3-[7-fluoro-3-(propan-2-yl)-1H-indazol-1-yl]-1,2,4-oxadiazol-5-yl}-1′-(methylsulfonyl)-1,4′-bipiperidine trifluoroacetate]",< 20
13,"CC(=O)N1CC(CN2CCC(c3nc(-n4nc(C(C)C)c5ccc(C)cc54)no3)CC2)C1 [Example 471, 1-{3-[(4-{3-[6-methyl-3-(propan-2-yl)-1H-indazol-1-yl]-1,2,4-oxadiazol-5-yl}piperidin-1-yl)methyl]azetidin-1-yl}ethanone trifluoroacetate]",173
14,"CCc1nn(-c2noc(C3CCN(CC4CCN(C(=O)OC)CC4)CC3)n2)c2c(F)c(F)ccc12 [Example 476, methyl 4-({4-[3-(3-ethyl-6,7-difluoro-1H-indazol-1-yl)-1,2,4-oxadiazol-5-yl]piperidin-1-yl}methyl)piperidin-1-carboxylate trifluoroacetate]",< 20
15,"CC(=O)N1CCC(CN2CCC(c3nc(-n4nc(C(C)C)c5ccc(C)cc54)no3)CC2)CC1 [Example 479, 1-{4-[(4-{3-[6-methyl-3-(propan-2-yl)-1H-indazol-1-yl]-1,2,4-oxadiazol-5-yl}piperidin-1-yl)methyl]piperidin-1-yl}ethanone trifluoroacetate]",94.6
16,"CC(=O)N1CCC(CN2CCC(c3nc(-n4nc(C(C)C)c5ccc(F)c(F)c54)no3)CC2)CC1 [Example 480, 1-{4-[(4-{3-[6,7-difluoro-3-(propan-2-yl)-1H-indazol-1-yl]-1,2,4-oxadiazol-5-yl}piperidin-1-yl)methyl]piperidin-1-yl}ethanone trifluoroacetate]",27.5
17,"CC(=O)N1CCOC(CN2CCC(c3nc(-n4nc(C(C)C)c5cccc(F)c54)no3)CC2)C1 (stereo not shown) [Example 483, 1-{2-[(4-{3-[7-fluoro-3-(propan-2-yl)-1H-indazol-1-yl]-1,2,4-oxadiazol-5-yl}piperidin-1-yl)methyl]morpholin-4-yl}ethanone]",35.7
18,"COC(=O)N1CCOC(CN2CCC(c3nc(-n4nc(C(C)C)c5cccc(F)c54)no3)CC2)C1 (stereo not shown) [Example 484, methyl 2-[(4-{3-[7-fluoro-3-(propan-2-yl)-1H-indazol-1-yl]-1,2,4-oxadiazol-5-yl}piperidin-1-yl)methyl]morpholine-4-carboxylate]",28.1
19,"CC(C)c1nn(-c2noc(C3CCN(CC4CN(C(=O)N(C)C)CCO4)CC3)n2)c2c(F)cccc12 (stereo not shown) [Example 485, 2-[(4-{3-[7-fluoro-3-(propan-2-yl)-1H-indazol-1-yl]-1,2,4-oxadiazol-5-yl}piperidin-1-yl)methyl]-N,N-dimethylmorpholine-4-carboxamide]",21.2
20,"CC(C)c1nn(-c2noc(C3CCN(CC4CN(S(C)(=O)=O)CCO4)CC3)n2)c2c(F)cccc12 (stereo not shown) [Example 486, 7-fluoro-1-[5-(1-{[4-(methylsulfonyl)morpholin-2-yl]methyl}piperidin-4-yl)-1,2,4-oxadiazol-3-yl]-3-(propan-2-yl)-1H-indazole]",< 20
21,"CC(=O)N1CCC(N2CC[C@H](Cc3nc(-n4nc(C(C)C)c5cccc(F)c54)no3)C2)CC1 [Example 495, 1-{4-[(3R)-3-({3-[7-fluoro-3-(propan-2-yl)-1H-indazol-1-yl]-1,2,4-oxadiazol-5-yl}methyl)pyrrolidin-1-yl]piperidin-1-yl}ethanone]",< 20
22,"C=C(C)c1nn(-c2noc(C3CCN(C4CCN(C(=O)CO)CC4)CC3)n2)c2c(F)cccc12 [Example 521, 1-(4-{3-[7-fluoro-3-(prop-1-en-2-yl)-1H-indazol-1-yl]-1,2,4-oxadiazol-5-yl}-1,4′-bipiperidin-1'-yl)-2-hydroxyethanone hydrochloride]",93.7
23,"CC(C)(C)c1nn(-c2noc(C3CCN(C4CCN(C(=O)CO)CC4)CC3)n2)c2ccccc12 [Example 522, 1-{4-[3-(3-tert-butyl-1H-indazol-1-yl)-1,2,4-oxadiazol-5-yl]-1,4′-bipiperidin-1′-yl}-2-hydroxyethanone]",222
24,"CC(C)c1nn(-c2noc(C3CCN(C4CCN(C(=O)CO)CC4)CC3)n2)c2c(F)c(O)ccc12 [Example 552, 1-(4-{3-[7-fluoro-6-hydroxy-3-(propan-2-yl)-1H-indazol-1-yl]-1,2,4-oxadiazol-5-yl}-1,4′-bipiperidin-1′-yl)-2-hydroxyethanone]",179
25,"CC(C)c1nn(-c2noc(C3CCN(C4CCN(C(=O)CO)CC4)CC3)n2)c2c(F)ccc(O)c12 [Example 553, 1-(4-{3-[7-fluoro-4-hydroxy-3-(propan-2-yl)-1,1′-indazol-1-yl]-1,2,4-oxadiazol-5-yl}-1,4′-bipiperidin-1′-yl)-2-hydroxyethanone]",18.7
26,"CC(=O)N1CCC(N2CCC(c3nc(-n4nc(C(C)C)c5ccc(O)c(F)c54)no3)CC2)CC1 [Example 554, 1-(4-{3-[7-fluoro-6-hydroxy-3-(propan-2-yl)-1H-indazol-1-yl]-1,2,4-oxadiazol-5-yl}-1,4′-bipiperidin-1′-yl)ethanone]",190
27,"CC(=O)N1CCC(N2CCC(c3nc(-n4nc(C(C)C)c5c(O)ccc(F)c54)no3)CC2)CC1 [Example 555, 1-(4-{3-[7-fluoro-4-hydroxy-3-(propan-2-yl)-1H-indazol-1-yl]-1,2,4-oxadiazol-5-yl}-1,4′-bipiperidin-1′-yl)ethanone]",24.9
28,"CC(C)c1nn(-c2noc(C3CCN(C4CCN(C(=O)C(=O)O)CC4)CC3)n2)c2c(F)cccc12 [Example 557, potassium (4-{3-[7-fluoro-3-(propan-2-yl)-1H-indazol-1-yl]-1,2,4-oxadiazol-5-yl}-1,4′-bipiperidin-1′-yl)(oxo)acetate]",127

# From patent publication US20140057895A1, “INDAZOLE- AND PYRROLOPYRIDINE-DERIVATIVE AND PHARMACEUTICAL USE THEREOF” (priority 2011, published 2014)
